Measurements published in patent US20220411388A1, “SUBSTITUTED IMIDAZOLE CARBOXAMIDES AND THEIR USE IN THE TREATMENT OF MEDICAL DISORDERS” (Bial - R&D Investments, S.A., priority 2019, published 2022).
Converted amounts (≈) assume the structure as drawn.

What was measured:
[1] = Compound solubility in water; type: physicochemical
[2] = molecular target: T1, acid ceramidase (hACR) (Homo sapiens, UniProt Q13510); assay: Acid ceramidase inhibition, biochemical fluorescent assay with cell lysates overexpressing acid ceramidase (substrate Rbm14-12); conditions: cell lysate, 1 hr preincubation at RT, pH 4.5, Rbm14-12 6.3 μM; read-out: IC50 hACR
T1 construct: expressed in transfected cells
T1 sequence (Q13510 22-395): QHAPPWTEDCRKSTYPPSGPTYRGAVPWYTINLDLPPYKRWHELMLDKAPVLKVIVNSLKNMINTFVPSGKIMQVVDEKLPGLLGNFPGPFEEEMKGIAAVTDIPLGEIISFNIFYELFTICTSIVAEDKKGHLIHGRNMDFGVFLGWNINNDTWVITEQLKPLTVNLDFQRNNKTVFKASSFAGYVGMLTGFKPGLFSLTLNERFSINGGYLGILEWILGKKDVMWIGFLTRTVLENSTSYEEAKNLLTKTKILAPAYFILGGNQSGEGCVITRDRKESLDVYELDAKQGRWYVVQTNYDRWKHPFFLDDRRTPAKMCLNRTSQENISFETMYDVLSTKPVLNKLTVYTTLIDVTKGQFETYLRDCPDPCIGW
Description: The ability of exemplary compounds to inhibit acid ceramidase was measured.
Cell lysates overexpressing acid ceramidase were used as the enzyme source for compound potency determination in a biochemical fluorescent assay. Briefly, compounds were preincubated with 10 μg protein of cell lysates in a dose-response manner for 1 hr at RT in the assay buffer containing 25 mM NaAC and 100 mM NaCl, pH 4.5. […] The samples were incubated with the stopping buffer at RT for 1 hr to allow the fluorescent product to be formed. […] Data were collected and used to determine the IC50 values of compounds by curve fitting to the four-parameter inhibition equation.

Compound: CN(C)Cc1cncc(-c2cn(C(=O)NCCc3ccccc3)cn2)c1 [Example 44, 4-(5-((Dimethylamino)methyl)pyridin-3-yl)-N-phenethyl-1H-imidazole-1-carboxamide]
- solubility [1]: 30.8 µg/mL (≈ 88.1 µM)
- IC50 [2]: 0.2 to 1 µM

Compound: CC(C)(C)CCNC(=O)n1cnc(-c2cccnc2)c1 [Example 45, N-(3,3-Dimethylbutyl)-4-(pyridin-3-yl)-1H-imidazole-1-carboxamide]
- solubility [1]: 12.1 µg/mL (≈ 44.4 µM)
- IC50 [2]: 0.2 to 1 µM

Compound: CC(C)CCNC(=O)n1cnc(-c2ccccn2)c1 [Example 46, N-iso-Pentyl-4-(pyridin-2-yl)-1H-imidazole-1-carboxamide]
- solubility [1]: 13.8 µg/mL (≈ 53.4 µM)
- IC50 [2]: 0.2 to 1 µM

Compound: CC(C)CCNC(=O)n1cnc(C2CCCN(C)C2)c1 (centres unmarked) [Example 47, N-iso-Pentyl-4-(1-methylpiperidin-3-yl)-1H-imidazole-1-carboxamide]
- solubility [1]: 32.2 µg/mL (≈ 116 µM)
- IC50 [2]: 0.2 to 1 µM

Compound: CC(C)CCNC(=O)n1cnc(C2CCN(C)CC2)c1 [Example 48, N-iso-Pentyl-4-(1-methylpiperidin-4-yl)-1H-imidazole-1-carboxamide]
- solubility [1]: 34.2 µg/mL (≈ 123 µM)
- IC50 [2]: 0.2 to 1 µM

Compound: Cc1nc(-c2cccnc2)cn1C(=O)NCCC(C)C [Example 49, N-iso-Pentyl-2-methyl-4-(pyridin-3-yl)-1H-imidazole-1-carboxamide]
- solubility [1]: 7.9 µg/mL (≈ 29 µM)
- IC50 [2]: < 0.2 µM

Compound: CC(C)CCNC(=O)n1cnc(-c2nccs2)c1 [Example 50, N-iso-Pentyl-4-(thiazol-2-yl)-1H-imidazole-1-carboxamide]
- solubility [1]: 23.5 µg/mL (≈ 88.9 µM)
- IC50 [2]: 0.2 to 1 µM

Compound: CC(C)CCNC(=O)n1cnc(-c2cncs2)c1 [Example 51, N-iso-Pentyl-4-(thiazol-5-yl)-1H-imidazole-1-carboxamide]
- solubility [1]: 25.1 µg/mL (≈ 94.9 µM)
- IC50 [2]: 0.2 to 1 µM

Compound: COc1nc(-c2cccnc2)cn1C(=O)NCCC1CC1 [Example 53, N-(2-Cyclopropylethyl)-2-methoxy-4-(pyridin-3-yl)-1H-imidazole-1-carboxamide]
- solubility [1]: 26.5 µg/mL (≈ 92.5 µM)
- IC50 [2]: > 1 µM

Compound: O=C(NCCC1CC1)n1cnc(-c2cccnc2N2CCC(N3CCOCC3)CC2)c1 [Example 54, N-(2-Cyclopropylethyl)-4-(2-(4-morpholinopiperidin-1-yl)pyridin-3-yl)-1H-imidazole-1-carboxamide]
- solubility [1]: 32.8 µg/mL (≈ 77.3 µM)
- IC50 [2]: < 0.2 µM

Compound: CN1CCN(C2CCN(c3ncccc3-c3cn(C(=O)NCCC4CC4)cn3)CC2)CC1 [Example 55, N-(2-Cyclopropylethyl)-4-(2-(4-(4-methylpiperazin-1-yl)piperidin-1-yl)pyridin-3-yl)-1H-imidazole-1-carboxamide]
- solubility [1]: 41.5 µg/mL (≈ 94.8 µM)
- IC50 [2]: 0.2 to 1 µM

Compound: CC(C)CCNC(=O)n1cnc(CC2CCN(C)CC2)c1 [Example 56, N-iso-Pentyl-4-((1-methylpiperidin-4-yl)methyl)-1H-imidazole-1-carboxamide]
- solubility [1]: 21.7 µg/mL (≈ 74.2 µM)
- IC50 [2]: 0.2 to 1 µM

Compound: COc1nc(C(C)(C)C)cn1C(=O)NCCC(C)C [Example 57, 4-(tert-Butyl)-N-isopentyl-2-methoxy-1H-imidazole-1-carboxamide]
- solubility [1]: 13.3 µg/mL (≈ 49.7 µM)
- IC50 [2]: 0.2 to 1 µM

Compound: COc1nc(C(C)(C)C)cn1C(=O)NC(C)CC(C)C (centres unmarked) [Example 58, 4-(tert-Butyl)-2-methoxy-N-(4-methylpentan-2-yl)-1H-imidazole-1-carboxamide]
- solubility [1]: 15.1 µg/mL (≈ 53.7 µM)
- IC50 [2]: 0.2 to 1 µM

Compound: CC(C)CC(C)NC(=O)n1cnc(-c2cccnc2)c1 (centres unmarked) [Example 59, N-(4-Methylpentan-2-yl)-4-(pyridin-3-yl)-1H-imidazole-1-carboxamide]
- solubility [1]: 22.3 µg/mL (≈ 81.9 µM)
- IC50 [2]: 0.2 to 1 µM

Compound: CCC(C)CNC(=O)n1cnc(-c2cccnc2)c1 (centres unmarked) [Example 60, N-(2-Methylbutyl)-4-(pyridin-3-yl)-1H-imidazole-1-carboxamide]
- solubility [1]: 25.6 µg/mL (≈ 99.1 µM)
- IC50 [2]: 0.2 to 1 µM

Compound: O=C(NC1CCCCC1)n1cnc(-c2cccnc2)c1 [Example 61, N-Cyclohexyl-4-(pyridin-3-yl)-1H-imidazole-1-carboxamide]
- solubility [1]: 23 µg/mL (≈ 85.1 µM)
- IC50 [2]: > 1 µM

Compound: COc1ccc(-c2cn(C(=O)NC3CCCCC3)cn2)cn1 [Example 62, N-Cyclohexyl-4-(6-methoxypyridin-3-yl)-1H-imidazole-1-carboxamide]
- solubility [1]: 0.6 µg/mL (≈ 2 µM)
- IC50 [2]: > 1 µM

Compound: CCOc1nc(-c2ccccn2)cn1C(=O)NCCC1CC1 [Example 63, N-(2-Cyclopropylethyl)-2-ethoxy-4-(pyridin-2-yl)-1H-imidazole-1-carboxamide]
- solubility [1]: 24.1 µg/mL (≈ 80.2 µM)
- IC50 [2]: > 1 µM

Compound: CCOc1nc(-c2cccnc2)cn1C(=O)NCCC1CC1 [Example 64, N-(2-Cyclopropylethyl)-2-ethoxy-4-(pyridin-3-yl)-1H-imidazole-1-carboxamide]
- solubility [1]: 16.8 µg/mL (≈ 55.9 µM)
- IC50 [2]: > 1 µM

Compound: CC(C)Oc1nc(-c2cccnc2)cn1C(=O)NCCC1CC1 [Example 65, N-(2-Cyclopropylethyl)-2-isopropoxy-4-(pyridin-3-yl)-1H-imidazole-1-carboxamide]
- solubility [1]: 25 µg/mL (≈ 79.5 µM)
- IC50 [2]: 0.2 to 1 µM

Compound: O=C(NCCC1CC1)n1cc(-c2cccnc2)nc1OC1CC1 [Example 66, 2-Cyclopropoxy-N-(2-cyclopropylethyl)-4-(pyridin-3-yl)-1H-imidazole-1-carboxamide]
- solubility [1]: 25 µg/mL (≈ 80 µM)
- IC50 [2]: > 1 µM

Compound: CCOc1nc(-c2cccnc2)cn1C(=O)NCCC(C)C [Example 67, 2-Ethoxy-N-iso-pentyl-4-(pyridin-3-yl)-1H-imidazole-1-carboxamide]
- solubility [1]: 8 µg/mL (≈ 26.5 µM)
- IC50 [2]: > 1 µM

Compound: CSc1nc(-c2cccnc2)cn1C(=O)NCCC1CC1 [Example 67a]
- solubility [1]: 23 µg/mL (≈ 76.1 µM)
- IC50 [2]: 0.2 to 1 µM

Compound: CCOc1nc(-c2ccc(OC)nc2)cn1C(=O)NCCC1CC1 [Example 68, N-(2-Cyclopropylethyl)-2-ethoxy-4-(6-methoxypyridin-3-yl)-1H-imidazole-1-carboxamide]
- solubility [1]: 2 µg/mL (≈ 6.05 µM)
- IC50 [2]: > 1 µM

Compound: O=C(NCCC1CC1)n1cnc(-c2cscn2)c1 [Example 69, N-(2-Cyclopropylethyl)-4-(thiazol-4-yl)-1H-imidazole-1-carboxamide]
- solubility [1]: 32 µg/mL (≈ 122 µM)
- IC50 [2]: 0.2 to 1 µM

Compound: COc1ccc(-c2cn(C(=O)NCCC3CC3)cn2)cn1 [Example 70, N-(2-Cyclopropylethyl)-4-(6-methoxypyridin-3-yl)-1H-imidazole-1-carboxamide]
- solubility [1]: 1.3 µg/mL (≈ 4.54 µM)
- IC50 [2]: 0.2 to 1 µM

Compound: COc1ccc(-c2cn(C(=O)NCCC3(C(F)(F)F)CC3)cn2)cn1 [Example 71, 4-(6-Methoxypyridin-3-yl)-N-(2-(1-(trifluoromethyl)cyclopropyl)ethyl)-1H-imidazole-1-carboxamide]
- solubility [1]: 22 µg/mL (≈ 62.1 µM)
- IC50 [2]: < 0.2 µM

Compound: O=C(NCCC1CC1)n1cnc(-c2ccns2)c1 [Example 72, N-(2-Cyclopropylethyl)-4-(iso-thiazol-5-yl)-1H-imidazole-1-carboxamide]
- solubility [1]: 22 µg/mL (≈ 83.9 µM)
- IC50 [2]: 0.2 to 1 µM

Compound: Cc1nc(-c2cn(C(=O)NCCC3CC3)cn2)co1 [Example 73, N-(2-Cyclopropylethyl)-4-(2-methyloxazol-4-yl)-1H-imidazole-1-carboxamide]
- solubility [1]: 26 µg/mL (≈ 99.9 µM)
- IC50 [2]: 0.2 to 1 µM

Compound: O=C(NCCC1CC1)n1cnc(-n2ccc(F)n2)c1 [Example 74, N-(2-Cyclopropylethyl)-4-(3-fluoro-1H-pyrazol-1-yl)-1H-imidazole-1-carboxamide]
- solubility [1]: 34 µg/mL (≈ 129 µM)
- IC50 [2]: > 1 µM

Compound: COc1nc(C2CCCC2)cn1C(=O)NCCC(C)C [Example 75, 4-Cyclopentyl-N-iso-pentyl-2-methoxy-1H-imidazole-1-carboxamide]
- solubility [1]: 13 µg/mL (≈ 46.5 µM)
- IC50 [2]: 0.2 to 1 µM

Compound: COc1nc(C(C)C)cn1C(=O)NCCC(C)C [Example 76]
- solubility [1]: 20 µg/mL (≈ 78.9 µM)
- IC50 [2]: 0.2 to 1 µM

Compound: CCc1cn(C(=O)NCCC(C)C)c(OC)n1 [Example 77, 4-Ethyl-N-iso-pentyl-2-methoxy-1H-imidazole-1-carboxamide]
- solubility [1]: 23 µg/mL (≈ 96.1 µM)
- IC50 [2]: 0.2 to 1 µM

Compound: COc1nccn1C(=O)NCCC(C)C [Example 78, N-iso-pentyl-2-methoxy-1H-imidazole-1-carboxamide]
- solubility [1]: 28 µg/mL (≈ 133 µM)
- IC50 [2]: 0.2 to 1 µM

Compound: CC(C)CC(C)NC(=O)n1cnc(C(C)(C)C)c1 (centres unmarked) [Example 79, 4-(tert-Butyl)-N-(4-methylpentan-2-yl)-1H-imidazole-1-carboxamide]
- solubility [1]: 11 µg/mL (≈ 43.8 µM)
- IC50 [2]: < 0.2 µM

Compound: CSc1nc(C(C)(C)C)cn1C(=O)NCCC(C)C [Example 80, 4-(tert-Butyl)-N-iso-pentyl-2-(methylthio)-1H-imidazole-1-carboxamide]
- solubility [1]: 0.2 µg/mL (≈ 0.706 µM)
- IC50 [2]: < 0.2 µM

Compound: COc1nc(C(C)(C)C#N)cn1C(=O)NCCC(C)C [Example 81, 4-(2-Cyanopropan-2-yl)-N-iso-pentyl-2-methoxy-1H-imidazole-1-carboxamide]
- solubility [1]: 23 µg/mL (≈ 82.6 µM)
- IC50 [2]: > 1 µM

Compound: COc1nc(C2(C)CCC(=O)N2C)cn1C(=O)NCCC(C)C (centres unmarked) [Example 82, 4-(1,2-Dimethyl-5-oxopyrrolidin-2-yl)-N-iso-pentyl-2-methoxy-1H-imidazole-1-carboxamide]
- solubility [1]: 31 µg/mL (≈ 96.2 µM)
- IC50 [2]: > 1 µM

Compound: COc1nc(-c2cccnn2)cn1C(=O)NCCC(C)C [Example 83, N-iso-Pentyl-2-methoxy-4-(pyridazin-3-yl)-1H-imidazole-1-carboxamide]
- solubility [1]: 33 µg/mL (≈ 114 µM)
- IC50 [2]: 0.2 to 1 µM
